Tests used:
JMJD2C = JMJD2C (Homo sapiens (Human), UniProt Q9H3R0); assay: In vitro enzyme inhibition assay for JMJD2C activity (TR-FRET); type: biochemical
Summary of the method: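 Demethylation product H3K9me2 quantified by TR-FRET ratio 665/615 after EDTA stop and 1 h with Eu-anti-H3K9me2 and streptavidin-APC; IC50 by curve fit. Reaction: 0.3 nM JMJD2C (AA 2-372, baculovirus), 2 μM α-ketoglutarate, 300 nM biotin-H3K9me3 peptide, pH 7.3 HEPES with Fe(II)/ascorbate, 30 min room temperature.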

JMJD3 = JMJD3 (Homo sapiens, UniProt O15054); assay: In vitro enzyme inhibition assay for JMJD3 activity (TR-FRET); type: biochemical
Protocol: This assay determines the ability of a test compound to inhibit JMJD3 demethylase activity.
The enzymatic assay of JMJD3 activity is based upon Time Resolved-Fluorescence Resonance Energy Transfer (TR-FRET) detection. […] Reaction product was determined quantitatively by TR-FRET after the addition of detection reagent Phycolink Streptavidin-allophycocyanin (Prozyme) and Europium-anti-di-methylated histone H3 lysine 27 (H3K27me2) antibody (PerkinElmer) in the presence of 5 mM EDTA in LANCE detection buffer (PerkinElmer) at a final concentration of 50 nM and 1 nM, respectively.
The reaction mixture was incubated at room temperature for 30 minutes, and terminated by the addition of 6 μL of 5 mM EDTA in LANCE detection buffer containing 100 nM Phycolink Streptavidin-allophycocyanin and 2 nM Europium-anti-H3K27me2 antibody.

[1] = tested on: KYSE-150 esophageal carcinoma cell line; assay: In vitro cell-based assay: cellular proliferation via BrdU incorporation (ELISA); parameters: species or system human; settings: Homo sapiens, KYSE-150, 168 hours compound incubation
Summary of the method: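 BrdU incorporation during S-phase, detected colorimetrically at 450 nm by peroxidase ELISA, measured proliferation after 168 h compound exposure.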

Sequence of JMJD2C (Q9H3R0 2-372): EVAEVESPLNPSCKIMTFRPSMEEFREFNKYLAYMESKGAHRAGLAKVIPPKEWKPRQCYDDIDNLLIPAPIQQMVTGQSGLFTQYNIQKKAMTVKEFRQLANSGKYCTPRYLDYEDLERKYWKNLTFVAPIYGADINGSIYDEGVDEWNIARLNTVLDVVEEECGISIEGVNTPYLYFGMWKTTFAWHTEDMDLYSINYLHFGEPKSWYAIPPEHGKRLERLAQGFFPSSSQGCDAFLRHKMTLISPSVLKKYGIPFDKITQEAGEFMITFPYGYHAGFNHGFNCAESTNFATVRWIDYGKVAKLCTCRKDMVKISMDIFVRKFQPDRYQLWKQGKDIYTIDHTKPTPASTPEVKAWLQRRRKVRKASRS

IC50 (JMJD2C) | IC50 (JMJD3) | IC50 [1] | SMILES
1000 to 10000 nM | 1000 to 10000 nM | 100 to 1000 nM | Cc1sccc1-c1ccc2c(c1)OCC[C@H]2CNc1cnccc1C(=O)O [Example 37, 3-({[(4R)-7-(2-methylthiophen-3-yl)-3,4-dihydro-2H-1-benzopyran-4-yl]methyl}amino)pyridine-4-carboxylic acid]
100 to 1000 nM | 100 to 1000 nM | ≤ 100 nM | CN(c1ccccc1)c1ccc2c(c1)OCC[C@H]2CNc1cnccc1C(=O)O [Example 18, 3-({[(4R)-7-[methyl(phenyl)amino]-3,4-dihydro-2H-1-benzopyran-4-yl]methyl}amino)pyridine-4-carboxylic acid]
100 to 1000 nM | < 100 nM | 1000 to 10000 nM | O=C(O)c1ccncc1NCC1CCOc2cc(-c3ccoc3)ccc21 (stereo not drawn) [Example 28, 3-({[7-(furan-3-yl)-3,4-dihydro-2H-1-benzopyran-4-yl]methyl}amino)pyridine-4-carboxylic acid]
100 to 1000 nM | 1000 to 10000 nM | 100 to 1000 nM | O=C(O)c1ccncc1NC[C@@H]1CCOc2cc(-c3ccsc3)ccc21 [Example 34, 3-({[(4R)-7-(thiophen-3-yl)-3,4-dihydro-2H-1-benzopyran-4-yl]methyl}amino)pyridine-4-carboxylic acid]
100 to 1000 nM | 1000 to 10000 nM | 100 to 1000 nM | O=C(O)c1ccncc1NCC1CCOc2cc(N3CCCc4ccccc43)ccc21 (stereo not drawn) [Example 16, 3-({[7-(1,2,3,4-tetrahydroquinolin-1-yl)-3,4-dihydro-2H-1-benzopyran-4-yl]methyl}amino)pyridine-4-carboxylic acid]
100 to 1000 nM | 1000 to 10000 nM | ≤ 100 nM | CCc1ccc(N(C)c2ccc3c(c2)OCC[C@H]3CNc2cnccc2C(=O)O)cc1 [Example 154, 3-({[(4R)-7-[(4-ethylphenyl)(methyl)amino]-3,4-dihydro-2H-1-benzopyran-4-yl]methyl}amino)pyridine-4-carboxylic acid]
≤ 100 nM | 1000 to 10000 nM | ≤ 100 nM | Cc1ccc(N(C)c2ccc3c(c2)OCC[C@H]3CNc2cnccc2C(=O)O)nc1 [Example 145, 3-({[(4R)-7-[methyl(5-methylpyridin-2-yl)amino]-3,4-dihydro-2H-1-benzopyran-4-yl]methyl}amino)pyridine-4-carboxylic acid]

The remaining lines, values behind:

SMILES | IC50 (JMJD2C) | IC50 (JMJD3) | IC50 [1]
C#Cc1ccc(N(C)c2ccc3c(c2)OCC[C@H]3CNc2cnccc2C(=O)O)cc1 [Example 126, 3-({[(4R)-7-[(4-ethynylphenyl)(methyl)amino]-3,4-dihydro-2H-1-benzopyran-4-yl]methyl}amino)pyridine-4-carboxylic acid] | 100 to 1000 nM | 1000 to 10000 nM | 100 to 1000 nM
CN(c1ccc(-n2ccnc2)cc1)c1ccc2c(c1)OCC[C@H]2CNc1cnccc1C(=O)O [Example 194, 3-({[(4R)-7-{[4-(1H-imidazol-1-yl)phenyl](methyl)amino}-3,4-dihydro-2H-1-benzopyran-4-yl]methyl}amino)pyridine-4-carboxylic acid] | 100 to 1000 nM | 1000 to 10000 nM | 1000 to 10000 nM
CC(C)c1ccc(N(C)c2ccc3c(c2)OCC[C@H]3CNc2cnccc2C(=O)O)cc1 [Example 187, 3-({[(4R)-7-{methyl[4-(propan-2-yl)phenyl]amino}-3,4-dihydro-2H-1-benzopyran-4-yl]methyl}amino)pyridine-4-carboxylic acid] | 100 to 1000 nM | 1000 to 10000 nM | ≤ 100 nM
CN(c1ccc(-n2ccnc2)cc1)c1ccc2c(c1)CCC[C@H]2CNc1cnccc1C(=O)O [Example 193, 3-({[(1R)-6-{[4-(1H-imidazol-1-yl)phenyl](methyl)amino}-1,2,3,4-tetrahydronaphthalen-1-yl]methyl}amino)pyridine-4-carboxylic acid] | 100 to 1000 nM | 1000 to 10000 nM | 100 to 1000 nM
CN(c1ccc(C2CC2)cc1)c1ccc2c(c1)OCC[C@H]2CNc1cnccc1C(=O)O [Example 134, 3-({[(4R)-7-[(4-cyclopropylphenyl)(methyl)amino]-3,4-dihydro-2H-1-benzopyran-4-yl]methyl}amino)pyridine-4-carboxylic acid] | 100 to 1000 nM | 1000 to 10000 nM | ≤ 100 nM
CN(c1ccc(OCC2CC2)cc1)c1ccc2c(c1)CCC[C@H]2CNc1cnccc1C(=O)O [Example 209, 3-({[(1R)-6-{[4-(cyclopropylmethoxy)phenyl](methyl)amino}-1,2,3,4-tetrahydronaphthalen-1-yl]methyl}amino)pyridine-4-carboxylic acid] | 100 to 1000 nM | 1000 to 10000 nM | ≤ 100 nM
CN(c1ccc(OC(F)F)cc1)c1ccc2c(c1)CCC[C@H]2CNc1cnccc1C(=O)O [Example 184, 3-({[(1R)-6-{[4-(difluoromethoxy)phenyl](methyl)amino}-1,2,3,4-tetrahydronaphthalen-1-yl]methyl}amino)pyridine-4-carboxylic acid] | 100 to 1000 nM | 1000 to 10000 nM | ≤ 100 nM
COc1ccc2c(c1C)CCC[C@H]2CNc1cnccc1C(=O)O [Example 99, 3-({[(1R)-6-methoxy-5-methyl-1,2,3,4-tetrahydronaphthalen-1-yl]methyl}amino)pyridine-4-carboxylic acid] | 100 to 1000 nM | 100 to 1000 nM | 1000 to 10000 nM
CCOc1ccc(N(C)c2ccc3c(c2)CCC[C@H]3CNc2cnccc2C(=O)O)cc1 [Example 185, 3-({[(1R)-6-[(4-ethoxyphenyl)(methyl)amino]-1,2,3,4-tetrahydronaphthalen-1-yl]methyl}amino)pyridine-4-carboxylic acid] | 100 to 1000 nM | 1000 to 10000 nM | ≤ 100 nM
Cc1ccc(N(C)c2ccc3c(c2)CCC[C@H]3CNc2cnccc2C(=O)O)cc1 [Example 140, 3-({[(1R)-6-[methyl(4-methylphenyl)amino]-1,2,3,4-tetrahydronaphthalen-1-yl]methyl}amino)pyridine-4-carboxylic acid] | 100 to 1000 nM | 1000 to 10000 nM | ≤ 100 nM
Cc1cnc(N(C)c2ccc3c(c2)CCC[C@H]3CNc2cnccc2C(=O)O)nc1 [Example 156, 3-({[(1R)-6-[methyl(5-methylpyrimidin-2-yl)amino]-1,2,3,4-tetrahydronaphthalen-1-yl]methyl}amino)pyridine-4-carboxylic acid] | 100 to 1000 nM | 1000 to 10000 nM | 100 to 1000 nM
Cc1cccc(N(C)c2ccc3c(c2)CCC[C@H]3CNc2cnccc2C(=O)O)n1 [Example 123, 3-({[(1R)-6-[methyl(6-methylpyridin-2-yl)amino]-1,2,3,4-tetrahydronaphthalen-1-yl]methyl}amino)pyridine-4-carboxylic acid] | 100 to 1000 nM | 1000 to 10000 nM | ≤ 100 nM
CN(c1ccc(O)cc1)c1ccc2c(c1)CCC[C@H]2CNc1cnccc1C(=O)O [Example 165, 3-({[(1R)-6-[(4-hydroxyphenyl)(methyl)amino]-1,2,3,4-tetrahydronaphthalen-1-yl]methyl}amino)pyridine-4-carboxylic acid] | 100 to 1000 nM | 1000 to 10000 nM | 1000 to 10000 nM
CN(c1ccc(CC(F)(F)F)cc1)c1ccc2c(c1)OCC[C@H]2CNc1cnccc1C(=O)O [Example 192, 3-({[(4R)-7-{methyl[4-(2,2,2-trifluoroethyl)phenyl]amino}-3,4-dihydro-2H-1-benzopyran-4-yl]methyl}amino)pyridine-4-carboxylic acid] | 100 to 1000 nM | 1000 to 10000 nM | ≤ 100 nM
